3 molecules from patent publication US9512139B2, “Conformationally constrained, fully synthetic macrocyclic compounds” (POLYPHOR AG, priority 2009, dated 2016) can be followed below.

Read-outs that look alike come from different tables or passages of the source.

Assay [1] relates to MAPK/MEK/B-raf pathway (AP1-bla A375 cells). Briefly: MAPK/MEK/B-raf AP1-bla A375 inhibitor screen, constitutively activated (negative control of the Wnt assay). It counts as cell-based. The protocol: (§1) 3. Assays for the Wnt-Pathway
(§2) For determining the activity of the test compounds on the Wnt-pathway each substances war subjected to two distinct assays: The first (Wnt/Beta-Catenin) assay screened for inhibitors of the Wnt-pathway while the second (MAPK/MEK/B-raf) was conducted in order to confirm that the test compounds modulate the β-catenin-dependent, canonical Wnt pathway and are not acting via a possibly competing β-catenin-independent, noncanonical Wnt messaging system.
(§3) Both assays were performed and analyzed with a Tecan Safire^2 fluorescence plate reader.
MAPK/MEK/B-raf—APl-bla A375—Inhibitor Screen, Constitutively Activated
(§4) AP1-bla A375 cells are thawed and resuspended in Assay Media (OPTI-MEM, 0.5% dialyzed FBS, 0.1 mM NEAA, 1 mM Sodium Pyruvate, 100 U/mL/100 μg/mL Pen/Strep) to a concentration of 312,500 cells/mL. 4 μL of a 10× serial dilution of Raf1 Kinase Inhibitor (control inhibitor starting concentration, 10,000 nM) or compounds are added to appropriate wells of a TC-Treated assay plate. 32 μL of cell suspension (10,000 cells) is added to the wells. 4 μL of Assay Media is added to all wells to bring the final assay volume to 40 μL. The plate is incubated for 16-24 hours at 37° C./5% CO2 in a humidified incubator. 8 μL of 1 μM Substrate Loading Solution is added to each well and the plate is incubated for 2 hours at room temperature.

Assay [2] concerns Wnt/Beta-Catenin pathway (LEF-TCF-bla SW480 cells). Briefly: Wnt/Beta-Catenin (APC-/-) LEF-TCF-bla SW480 inhibitor screen, constitutively activated. Format: cell-based. The following applies: for IC50: read-out: TCF/LEF receptor gene activity IC50; for inhibition at 10 µM: read-out: TCF/LEF receptor gene activity [% inhibition at 10 μM]. As to the method:
as §1, §2, §3
Wnt/Beta-Catenin (APC−/−)—LEF-TCF-bla SW480—Inhibitor Screen, Constitutively Activated
as §4, with “LEF-TCF-bla SW480” for “AP1-bla A375”, “ICG-001” for “Raf1 Kinase Inhibitor”

Setting [3] is: Homo sapiens, A-375, read-out: AP receptor gene activity IC50.

Turning to `CN1CC(=O)N2C[C@@H](NC(=O)c3cccc(Cl)c3)C[C@H]2COc2ccc(F)cc2C(=O)N(C)[C@H](C(=O)NCc2cccc3ccccc23)CCC1=O` [Ex. 502, (2S,11S,19aS)-2-[(3-chlorobenzoyl)amino]-15-fluoro-7,12-dimethyl-N-(1-naphthylmethyl)-5,8,13-trioxo-2,3,6,7,8,9,10,11,12,13,19,19a-dodecahydro-1H,5H-pyrrolo[2,1-c] [1,4,7,12] benzoxatriazacyclopentadecine-11-carboxamide], the IC50 in assay [1] (setting [3]) was over 50 µM. In assay [2] (Homo sapiens, SW480), the IC50 came out at 5.5 µM and the inhibition at 10 µM came to 82%.
Turning to `CN1CC(=O)N2C[C@@H](NC(=O)Cc3ccc4ccccc4c3)C[C@H]2COc2ccc(F)cc2C(=O)N(C)[C@H](C(=O)NCc2cccc3ccccc23)CCC1=O` [Ex. 501, (2S,11S,19aS)-15-fluoro-7,12-dimethyl-2-{[2-(2-naphthyl)acetyl]amino}-N-(1-naphthylmethyl)-5,8,13-trioxo-2,3,6,7,8,9, 10,11,12,13,19,19a-dodecahydro-1H,5H-pyrrolo[2,1-c] [1,4,7,12]benzoxatriazacyclo-pentadecine-11-carboxamide], the IC50 in assay [1] (read-out: AP receptor gene activity IC50) is over 50 µM; in assay [2] it was 1.1 µM. Moreover, the “TCF/LEF receptor gene activity [% inhibition at 10 μM]” value in assay [2] (10 μM) is 100%.
Consider `CN1CC(=O)N2C[C@@H](NC(=O)c3cccc4ccccc34)C[C@H]2COc2ccc(F)cc2C(=O)N(C)[C@H](C(=O)NCc2ccc3ccccc3c2)CCC1=O` [Ex. 503, (2S,11S,19aS)-15-fluoro-7,12-dimethyl-2-(1-naphthoylamino)-N-(2-naphthylmethyl)-5,8,13-trioxo-2,3,6,7,8,9,10,11,12,13,19,19a-dodecahydro-1H,5H-pyrrolo[2,1-c] [1,4,7,12]benzoxatriazacyclopentadecine-11-carboxamide], for which the IC50 was over 50 µM in assay [1] (setting [3]) and 5.8 µM in assay [2] (Homo sapiens, SW480). Also, the inhibition at 10 µM in assay [2] (Homo sapiens, SW480) is 68%.
